Assay results: patent publication US20230310347A1, “BACTERICIDE” (priority 2020, published 2023)

Columns and labels:
[1] = Storage stability of ingredient (B) alone or mixed with Hinokitiol, GC area percentage; type: physicochemical
Description: The storage stability of limonene alone and the storage stability of limonene mixed with Hinokitiol were evaluated.
Specifically, limonene was placed in a glass vial, which was hermetically sealed by tightening a septum with an aluminum cap.
Furthermore, 50 parts by mass of limonene and 50 parts by mass of Hinokitiol were mixed, placed in a glass vial different from the above-described glass vial, and hermetically sealed by tightening a septum with an aluminum cap. These two samples were stored at 60° C. for 7 days, and the area percentage of limonene in the glass vials was measured by GC (the instrument: GC-2010 Plus manufactured by Shimadzu Corporation; the detector: flame ionization detector; the column: DB-624 manufactured by Agilent Technologies Japan, Ltd.) immediately after the start of the experiment, after 1 day, after 4 days, and after 7 days. The initial data (immediately after the start of the experiment) was the GC measurement result of limonene alone.
Regarding α-terpinene, γ-terpinene, and terpinen-4-ol, the storage stability of each of these alone and the storage stability of each of these mixed with Hinokitiol were evaluated.
Specifically, measurements were made in the same manner as Experiment Example 6-1 except that limonene was changed to α-terpinene, γ-terpinene, and terpinen-4-ol, respectively. It is noted that, regarding γ-terpinene, GC measurements were only made immediately after the start of the experiment, after one day, and after seven days.

[2] = tested on: Propionibacterium acnes (GAI 5419); test: Bactericidal property (Propionibacterium acnes), number of viable bacteria; type: cell-based; details: for bactericidal effects against Cutibacterium acnes (in words): each ingredient alone, concentration not given
Description: Propionibacterium acnes (GAI 5419) was inoculated on a GAM agar medium (manufactured by Nissui Pharmaceutical Co., Ltd.) and precultured under anaerobic conditions at 35° C.±1° C. for 18 to 24 hours. A solution containing Propionibacterium acnes was prepared by diluting the solution to 10^7 to 10^8 bacteria/mL of Propionibacterium acnes with physiological saline.
Next, 10 mL of the samples obtained in Preparation Example 1 were inoculated with 0.1 mL of the above-mentioned solution containing Propionibacterium acnes. These were stored at room temperature for 30 minutes and then diluted 10-fold with an SCDLP agar medium (manufactured by Nihon Pharmaceutical Co., Ltd.) and neutralized. These were poured onto a GAM agar medium (manufactured by Nissui Pharmaceutical Co., Ltd.) according to the pour plate culture method, and anaerobically cultured at 35° C.±1° C. for 2 to 5 days. After that, the numbers of viable bacteria were determined from the numbers of colonies formed and the dilution factor. It is noted that physiological saline was used for the control in place of the samples.
The numbers of viable bacteria were determined in the same manner as Experiment Example 1-1 except that the samples obtained in Preparation Example 1 were changed to the samples obtained in Preparation Example 2.
The numbers of viable bacteria were determined in the same manner as Experiment Example 1-1 except that the samples obtained in Preparation Example 1 were changed to the above-mentioned Samples α30 to α33.
Furthermore, Sample β20 (100 μg/mL of Hinokitiol+100 μg/mL of linalool) was prepared in the same manner as Sample al except that tea tree oil was changed to linalool.

[3] = 60° C., After 1 day, Hinokitiol Absent
[4] = 60° C., After 1 day, Hinokitiol Present (50:50 parts by mass)
[5] = 60° C., After 4 days, Hinokitiol Absent
[6] = 60° C., After 4 days, Hinokitiol Present (50:50 parts by mass)
[7] = 60° C., After 7 days, Hinokitiol Absent
[8] = 60° C., After 7 days, Hinokitiol Present (50:50 parts by mass)
[9] = Immediately after the start of the experiment, Hinokitiol Absent
[10] = Immediately after the start of the experiment, Hinokitiol Present (initial data = GC result of ingredient alone)

| Compound | residual ratio (area percentage (%)) [1, 3] | residual ratio (area percentage (%)) [1, 4] | residual ratio (area percentage (%)) [1, 5] | residual ratio (area percentage (%)) [1, 6] | residual ratio (area percentage (%)) [1, 7] | residual ratio (area percentage (%)) [1, 8] | residual ratio (area percentage (%)) [1, 9] | residual ratio (area percentage (%)) [1, 10] | bactericidal effects against Propionibacterium acnes (in words) ([2]; 100 μg/mL, Tables 1 and 2) | bactericidal effects against Propionibacterium acnes (in words) ([2]; 50 βg/mL, Table 5) | bactericidal effects against Cutibacterium acnes (in words) [2] | storage stability (in words) ([1]; when combined with a phenol derivative typified by Hinokitiol, Tables 10 to 13) |
| --- | --- | --- | --- | --- | --- | --- | --- | --- | --- | --- | --- | --- |
| CC1=CC=C(C(C)C)CC1 [α-Terpinene, α-terpinene] | 85.27% | 82.68% | 81.54% | 77.11% | 78.45% | 70.49% | 89.95% | 89.95% | no bactericidal effects | no bactericidal effects | almost no bactericidal effects |  |
| (+)-Limonene | 95.67% | 96.49% | 95.45% | 96.57% | 94.43% | 96.41% | 96.85% | 96.85% | no bactericidal effects | no bactericidal effects | almost no bactericidal effects | superior storage stability |
| CC1=CCC(O)(C(C)C)CC1 (stereo not shown) [Terpinen-4-ol, terpinen-4-ol] | 92.86% | 97.13% | 84.09% | 96.83% | 74.45% | 96.52% | 96.94% | 96.94% | insufficient bactericidal effects | insufficient bactericidal effects | insufficient |  |
| CC(C)c1cccc(=O)c(O)c1 [Hinokitiol] |  |  |  |  |  |  |  |  | insufficient bactericidal effects | insufficient bactericidal effects |  |  |
| Cc1cc(O)ccc1C(C)C [Isopropylmethylphenol, 4-isopropyl-3-methylphenol] |  |  |  |  |  |  |  |  | insufficient bactericidal effects |  |  |  |
| CC1=CCC(C(C)C)=CC1 [γ-Terpinene, γ-terpinene] | 92.09% | 92.22% |  |  | 85.49% | 84.44% | 96.81% | 96.81% | no bactericidal effects | no bactericidal effects | almost no bactericidal effects |  |
